Measured values: patent publication US10829796B2, “Bacteria identification and antimicrobial susceptibility test” (priority 2015, dated 2020)

Test system: bacteria in clinical bovine mastitis milk samples
Experiment: Combined bacteria identification and antimicrobial susceptibility test (colour of wells, MIC) on clinical bovine mastitis milk samples
Type: cell-based
Experimental: Clinical bovine mastitis milk samples were collected by a vet clinic in South Island, New Zealand. Samples were stored in the freezer for several months and shipped frozen to the testing facility. In this Example, the term “clinical” means that dairy cows had clinical symptoms of an udder infection e.g. cow behaved unusual, milk clots, swollen udder among other typical symptoms. Testing was executed in microwell plate comprising of 24 wells (3×8 wells).
In addition, 20 ul of clinical mastitis sample was added to each well with a laboratory pipette.
(§1) Abbreviations • 1. 80 ul GC+10 ul Tell: 80 ul Giolitti Cantoni base broth+10 ul Tellurite solution (1%); • 2. 80 ul TSB/Esc/Fer Cit: 80 ul Tryptic soy broth containing 0.25% Esculin and 0.125% Ammonium Ferric Citrate; • 3. 80 ul TSB/Esc/Fer Cit+10 ul Genta: 80 ul Tryptic soy broth containing 0.25% Esculin and 0.125% Ammonium Ferric Citrate+10 ul of Gentamycin solution 10 mg/ml; • 4. 80 ul McC/PR25: 80 ul MacConkey broth (single strength) containing 0.0125% phenol red; and • 5. 80 ul TSB/PR25: 80 ul Tryptic soy broth containing 0.0125% phenol red. Bacteria Identification
Columns A to C and rows 1 and 2 were used for bacteria identification. A1: coagulase positive Staph; A2: Staphylococci; B1: Strep group D; B2: Strep group D; C1: general enrichment media (gram+ and gram-bacteria); C2: coliform bacteria.
Column A3 to A8: serial dilution of benzyl penicillin as potassium. Column B3 to B8: serial dilution of ceftiofur as hydrochloride. Column C3 to C8: serial dilution of cloxacillin as sodium. Antibiotic concentrations are listed as free form ranging between 4 ug/ml to 0.05 ug/ml.
Minimum inhibitory substance concentration (MIC) is here defined as the concentration if a colour change occurs between two wells (one well remains red with drug concentration 1, the other one yellow with drug concentration 2, whereas drug concentration 1 is larger than drug concentration 2) then the MIC is the value of drug concentration 1.
Table 21 indicates the microwell plate configuration #1; Drugs: Benzylpenicillin as potassium; Cloxacillin as sodium; Ceftiofur as hydrochloride; Drug concentration in each well (A3 to C8) is based on 80 μl composition+10 μl drug solution+20 μl clinical mastitis milk sample and equivalent to listed drug concentration in μg/ml; 20 ul of clinical bovine mastitis milk sample was added to each well (A1 to C8).
In addition, each well received one drop of clinical sample from a transfer pipette which was on average about 35 mg. This was determined through weighing the well plate prior and after the addition of clinical mastitis samples. This weight was then divided by 24.
as §1, with “•” for “Abbreviations •”, “red.” for “red. Bacteria Identification”
Columns A to C and rows 1 and 2 were used for bacteria identification. A1: coagulase positive Staph; A2: Staphylococci; B1: Strep Group D; B2: -; C1: general enrichment media (gram+ and gram-); C2: coliform bacteria.
Column A3 to A8: serial dilution of benzyl penicillin as potassium. Drug concentrations given as free form ranging between 4 ug/ml to 0.05 ug/ml. Column B3 to B8: serial dilution of ceftiofur as hydrochloride. Drug concentrations given as free form ranging between 4 ug/ml to 0.05 ug/ml. Column C3 to C8: serial dilution of cloxacillin as sodium. Drug concentrations given as free form ranging between 4 ug/ml to 0.05 ug/ml.

With Cc1onc(-c2ccccc2Cl)c1C(=O)N[C@@H]1C(=O)N2[C@@H]1SC(C)(C)[C@@H]2C(=O)O [cloxacillin] the “Colour of media in each well” value (ID 5 to 8, T = 0 h (prior incubation, reference), plate configuration #2, drug 1 μg/ml) was “red”, the “Colour of media in each well” value (ID 5 to 8, T = 0 h (prior incubation, reference), plate configuration #2, drug 2 μg/ml) was “red” and the “Colour of media in each well” value (ID 5 to 8, T = 0 h (prior incubation, reference), plate configuration #2, drug 4 μg/ml) was “red”. The “Colour of media in each well” value (ID 6, T = 23h, 37° C., plate configuration #2, drug 0.05 μg/ml (Table 31)) was “yellow”, the “Colour of media in each well” value (ID 6, T = 23h, 37° C., plate configuration #2, drug 0.1 μg/ml (Table 31)) was “yellow” and the “Colour of media in each well” value (ID 6, T = 23h, 37° C., plate configuration #2, drug 0.5 μg/ml (Table 31)) was “yellow”. For the same molecule, the “Colour of media in each well” value (ID 6, T = 23h, 37° C., plate configuration #2, drug 1 μg/ml (Table 31)) was “yellow”, the “Colour of media in each well” value (ID 6, T = 23h, 37° C., plate configuration #2, drug 2 μg/ml (Table 31)) was “yellow” and the “Colour of media in each well” value (ID 6, T = 23h, 37° C., plate configuration #2, drug 4 μg/ml (Table 31)) was “yellow”. The “Colour of media in each well” value (ID 6, T~7 h, 37° C., plate configuration #2, Table 35, drug 0.05 μg/ml) was “yellow”, the “Colour of media in each well” value (ID 6, T~7 h, 37° C., plate configuration #2, Table 35, drug 0.1 μg/ml) was “yellow” and the “Colour of media in each well” value (ID 6, T~7 h, 37° C., plate configuration #2, Table 35, drug 0.5 μg/ml) was “yellow”. For the same molecule, the “Colour of media in each well” value (ID 6, T~7 h, 37° C., plate configuration #2, Table 35, drug 1 μg/ml) was “yellow”, the “Colour of media in each well” value (ID 6, T~7 h, 37° C., plate configuration #2, Table 35, drug 2 μg/ml) was “yellow” and the “Colour of media in each well” value (ID 6, T~7 h, 37° C., plate configuration #2, Table 35, drug 4 μg/ml) was “yellow”. For the same molecule, the “Colour of media in each well” value (ID 6, T~11 h, 37° C., plate configuration #2, Table 35, drug 0.05 μg/ml) was “yellow”, the “Colour of media in each well” value (ID 6, T~11 h, 37° C., plate configuration #2, Table 35, drug 0.1 μg/ml) was “yellow” and the “Colour of media in each well” value (ID 6, T~11 h, 37° C., plate configuration #2, Table 35, drug 0.5 μg/ml) was “yellow”. For the same molecule, the “Colour of media in each well” value (ID 6, T~11 h, 37° C., plate configuration #2, Table 35, drug 1 μg/ml) was “yellow”, the “Colour of media in each well” value (ID 6, T~11 h, 37° C., plate configuration #2, Table 35, drug 2 μg/ml) was “yellow” and the “Colour of media in each well” value (ID 6, T~11 h, 37° C., plate configuration #2, Table 35, drug 4 μg/ml) was “yellow”. For the same molecule, the “Colour of media in each well” value (ID 6, T~23 h, 37° C., plate configuration #2, Table 35, drug 0.05 μg/ml) was “yellow”, the “Colour of media in each well” value (ID 6, T~23 h, 37° C., plate configuration #2, Table 35, drug 0.1 μg/ml) was “yellow” and the “Colour of media in each well” value (ID 6, T~23 h, 37° C., plate configuration #2, Table 35, drug 0.5 μg/ml) was “yellow”. The “Colour of media in each well” value (ID 6, T~23 h, 37° C., plate configuration #2, Table 35, drug 1 μg/ml) was “yellow”, the “Colour of media in each well” value (ID 6, T~23 h, 37° C., plate configuration #2, Table 35, drug 2 μg/ml) was “yellow” and the “Colour of media in each well” value (ID 6, T~23 h, 37° C., plate configuration #2, Table 35, drug 4 μg/ml) was “yellow”. For the same molecule, the “Colour of media in each well” value (ID 7, T = 23h, 37° C., plate configuration #2, drug 0.05 μg/ml) was “yellow”, the “Colour of media in each well” value (ID 7, T = 23h, 37° C., plate configuration #2, drug 0.1 μg/ml) was “yellow” and the “Colour of media in each well” value (ID 7, T = 23h, 37° C., plate configuration #2, drug 0.5 μg/ml) was “red”. The “Colour of media in each well” value (ID 7, T = 23h, 37° C., plate configuration #2, drug 1 μg/ml) was “red”, the “Colour of media in each well” value (ID 7, T = 23h, 37° C., plate configuration #2, drug 2 μg/ml) was “red” and the “Colour of media in each well” value (ID 7, T = 23h, 37° C., plate configuration #2, drug 4 μg/ml) was “red”. The “Colour of media in each well” value (ID 8, T = 23 h, 37° C., plate configuration #2, drug 0.05 μg/ml) was “yellow”, the “Colour of media in each well” value (ID 8, T = 23 h, 37° C., plate configuration #2, drug 0.1 μg/ml) was “yellow” and the “Colour of media in each well” value (ID 8, T = 23 h, 37° C., plate configuration #2, drug 0.5 μg/ml) was “red”. The “Colour of media in each well” value (ID 8, T = 23 h, 37° C., plate configuration #2, drug 1 μg/ml) was “red”, the “Colour of media in each well” value (ID 8, T = 23 h, 37° C., plate configuration #2, drug 2 μg/ml) was “red” and the “Colour of media in each well” value (ID 8, T = 23 h, 37° C., plate configuration #2, drug 4 μg/ml) was “red”. For the same molecule, the “Colour of media in each well” value (Table 24, sample ID 2, 22 hours at 37° C., plate configuration #1, row 3 of serial dilution 4 ug/ml to 0.05 ug/ml) was “red”, the “Colour of media in each well” value (Table 24, sample ID 2, 22 hours at 37° C., plate configuration #1, row 4 of serial dilution 4 ug/ml to 0.05 ug/ml) was “red” and the “Colour of media in each well” value (Table 24, sample ID 2, 22 hours at 37° C., plate configuration #1, row 5 of serial dilution 4 ug/ml to 0.05 ug/ml) was “red”. The “Colour of media in each well” value (Table 24, sample ID 2, 22 hours at 37° C., plate configuration #1, row 6 of serial dilution 4 ug/ml to 0.05 ug/ml) was “red”, the “Colour of media in each well” value (Table 24, sample ID 2, 22 hours at 37° C., plate configuration #1, row 7 of serial dilution 4 ug/ml to 0.05 ug/ml) was “yellow” and the “Colour of media in each well” value (Table 24, sample ID 2, 22 hours at 37° C., plate configuration #1, row 8 of serial dilution 4 ug/ml to 0.05 ug/ml) was “yellow”. It also gave an MIC (clinical sample ID 1 (streptococci group D), 37° C. for 22 hours, plate configuration #1) of 0.5 mg/L, an MIC (clinical sample ID 2 (streptococci group D, also coagulase positive Staph), 37° C. for 22 hours, plate configuration #1) of 0.5 mg/L and an MIC (clinical sample ID 4 (coagulase positive Staph), 37° C. for 22 hours, plate configuration #1) of 0.5 mg/L. It also gave an MIC (clinical sample ID 5 (streptococci group D), 37° C. for 23 hours, plate configuration #2) of 0.5 mg/L, an MIC (clinical sample ID 7 (coagulase positive Staph), 37° C. for 23 hours, plate configuration #2) of 0.5 mg/L and an MIC (clinical sample ID 8 (coagulase negative Staph and Streptococci group D), 37° C. for 23 hours, plate configuration #2) of 0.5 mg/L.
